Measurements reported in the NIST ThermoML archive (doi:10.1016/j.tca.2016.12.010).
± gives the expanded uncertainty stated by the source.

Tests used:
[1] = xn = mol fraction of the nth substance listed; conditions: 94.9 kPa, Liquid, Vibrating tube method
[2] = refractive index (Na D-line) (dimensionless); xn = mol fraction of the nth substance listed; conditions: 94.9 kPa, Liquid, (Schmidt +Haensch) refractometer (Model DSR lambda)

C1COCCN1 [tetrahydro-1,4-oxazine] + CCCCCCCCCCO
Conditions | mass density, 293.15 K [kg/m3] | mass density, 303.15 K [kg/m3] | mass density, 313.15 K [kg/m3] | mass density, 323.15 K [kg/m3] | mass density, 333.15 K [kg/m3] | refractive index, 293.15 K | refractive index, 303.15 K | refractive index, 313.15 K | refractive index, 323.15 K | refractive index, 333.15 K
[1], x1 = 0.0959 | 842.65 ± 4 | 835.47 ± 4 | 828.35 ± 4 | 821.08 ± 4 | 813.99 ± 4 | – | – | – | – | –
[1], x1 = 0.1972 | 856.26 ± 4 | 849.05 ± 4 | 841.76 ± 4 | 834.65 ± 4 | 827.15 ± 4 | – | – | – | – | –
[1], x1 = 0.2983 | 870.74 ± 4 | 863.32 ± 4 | 855.74 ± 4 | 848.36 ± 4 | 840.7 ± 4 | – | – | – | – | –
[1], x1 = 0.3997 | 886.54 ± 4 | 878.86 ± 4 | 870.94 ± 4 | 863.25 ± 4 | 855.26 ± 4 | – | – | – | – | –
[1], x1 = 0.4984 | 902.71 ± 4 | 894.8 ± 4 | 886.64 ± 4 | 878.61 ± 4 | 870.39 ± 4 | – | – | – | – | –
[1], x1 = 0.5901 | 918.62 ± 4 | 910.46 ± 4 | 902.16 ± 4 | 894.03 ± 4 | 885.58 ± 4 | – | – | – | – | –
[1], x1 = 0.6748 | 933.78 ± 4 | 925.53 ± 4 | 916.99 ± 4 | 908.75 ± 4 | 900.13 ± 4 | – | – | – | – | –
[1], x1 = 0.7975 | 957.46 ± 4 | 948.96 ± 4 | 940.35 ± 4 | 931.54 ± 4 | 922.67 ± 4 | – | – | – | – | –
[1], x1 = 0.9053 | 980.12 ± 4 | 971.33 ± 4 | 961.51 ± 4 | 952.35 ± 4 | 943.05 ± 4 | – | – | – | – | –
[1], x1 = 1 | 999.54 ± 4 | 989.89 ± 4 | 979.82 ± 4 | 969.78 ± 4 | 959.74 ± 4 | – | – | – | – | –
[2], x1 = 0.0959 | – | – | – | – | – | 1.43851 ± 0.0024 | 1.43425 ± 0.0024 | 1.43051 ± 0.0024 | 1.42665 ± 0.0024 | 1.42296 ± 0.0024
[2], x1 = 0.1971 | – | – | – | – | – | 1.44011 ± 0.0024 | 1.43584 ± 0.0024 | 1.43195 ± 0.0024 | 1.42808 ± 0.0024 | 1.42408 ± 0.0024
[2], x1 = 0.2983 | – | – | – | – | – | 1.44177 ± 0.0024 | 1.4374 ± 0.0024 | 1.43335 ± 0.0024 | 1.42935 ± 0.0024 | 1.4252 ± 0.0024
[2], x1 = 0.3997 | – | – | – | – | – | 1.44353 ± 0.0024 | 1.43915 ± 0.0024 | 1.43498 ± 0.0024 | 1.43086 ± 0.0024 | 1.42655 ± 0.0024
[2], x1 = 0.4984 | – | – | – | – | – | 1.44523 ± 0.0024 | 1.4408 ± 0.0024 | 1.43652 ± 0.0024 | 1.43224 ± 0.0024 | 1.4278 ± 0.0024
[2], x1 = 0.5901 | – | – | – | – | – | 1.44686 ± 0.0024 | 1.44235 ± 0.0024 | 1.43799 ± 0.0024 | 1.43378 ± 0.0024 | 1.42913 ± 0.0024
[2], x1 = 0.6748 | – | – | – | – | – | 1.44835 ± 0.0024 | 1.44395 ± 0.0024 | 1.43952 ± 0.0024 | 1.43524 ± 0.0024 | 1.4304 ± 0.0024
[2], x1 = 0.7975 | – | – | – | – | – | 1.45055 ± 0.0024 | 1.44625 ± 0.0024 | 1.4419 ± 0.0024 | 1.43735 ± 0.0024 | 1.43224 ± 0.0024
[2], x1 = 0.9053 | – | – | – | – | – | 1.45253 ± 0.0024 | 1.44834 ± 0.0024 | 1.44365 ± 0.0024 | 1.43915 ± 0.0024 | 1.43382 ± 0.0024
[2], x1 = 1 | – | – | – | – | – | 1.45453 ± 0.0024 | 1.45031 ± 0.0024 | 1.44574 ± 0.0024 | 1.44113 ± 0.0024 | 1.43562 ± 0.0024
